Data set [1] can be described thus: LD50 s.c. in the mouse. The conditions noted are these: in vivo, sc.
In data set [2] the test system is corneocytes on the scalp. The data set is described as follows: Antidandruff activity: number of corneocytes on the scalp of male volunteers. Type of data set: in vivo, human (male volunteers). The protocol:
Dermatology, Vol. 53, p. 107 (1969). Each volunteer was treated by applying to the scalp 15 ml. of 0.1% by weight solution thereof daily for seven days. The number of corneocytes on the scalp of each subject was determined one day before treatment began and 1 day after termination of treatment.

Each structure is given as a SMILES string.

Turning to `CCNC(=O)/C=C(C)/C=C/C=C(C)/C=C/c1c(C)cc(OC)c(C)c1C` [9-(4-methoxy-2,3,6-trimethylphenyl)-3,7-dimethyl-nona-2,4,6,8-tetraen-1-oic acid ethyl amide], in data set [1], the LD50 is over 4000 mg/kg. Besides, the “Number of Corneocytes, one day post treatment” value was 1400 in data set [2] (Volunteer No. 1, 15 ml of 0.1% by weight solution on scalp daily for seven days, one day pre-treatment: 2100); 1500 in data set [2] (Volunteer No. 2, 15 ml of 0.1% by weight solution on scalp daily for seven days, one day pre-treatment: 5100); 1600 in data set [2] (Volunteer No. 3, 15 ml of 0.1% by weight solution on scalp daily for seven days, one day pre-treatment: 3250); 1600 in data set [2] (Volunteer No. 4, 15 ml of 0.1% by weight solution on scalp daily for seven days, one day pre-treatment: 1900). Further, the “decline in number of corneocytes (average)” value in data set [2] (four volunteers, one day post treatment vs one day pre-treatment, 15 ml of 0.1% by weight solution daily for seven days) came out at 50%. Moreover, in data set [2] (total of four volunteers, 15 ml of 0.1% by weight solution on scalp daily for seven days, one day pre-treatment total: 12350), the “Number of Corneocytes, one day post treatment, Total” value is listed as 6100.

As usually defined, the LD50 is the dose at which mortality reaches 50%. Higher therefore signals lower toxicity.

The record behind these values is patent US4021574A, “Antidandruff compositions containing 9-(4-lower alkoxy-2,3,6-trilower-alkylphenyl)-3,7-dimethyl-nona-2,4,6,8-tetraen-1-o ic acid lower alkyl amides” (Hoffmann-La Roche Inc., priority 1974, dated 1977).
